Data from paper PMC5218480 (PLoS ONE, 2017).

System: MV-4-11 cells
Assay: Gene expression microarray analysis (Affymetrix PrimeView) and GSEA
Type: cell-based, human
Parameters: RFU PODN (11730768_x_at) / Fold change /veh PODN (11730768_x_at) / RFU LINC00158 (11744669_a_at) / Fold change /veh LINC00158 (11744669_a_at) / RFU DUSP10 (11751237_a_at) / Fold change /veh DUSP10 (11751237_a_at) / RFU ID3 (11757404_x_at) / Fold change /veh ID3 (11757404_x_at) / RFU PLEKHG5 (11737974_s_at) / Fold change /veh PLEKHG5 (11737974_s_at) / RFU LRRC4B (11730491_at) / Fold change /veh LRRC4B (11730491_at) / RFU GIMAP4 (11747438_a_at) / Fold change /veh GIMAP4 (11747438_a_at) / RFU KRT8 (11758183_x_at) / Fold change /veh KRT8 (11758183_x_at) / RFU CNN1 (11734310_a_at) / Fold change /veh CNN1 (11734310_a_at) / RFU VPS37D (11726825_at) / Fold change /veh VPS37D (11726825_at) / RFU C10orf10 (11716522_x_at) / Fold change /veh C10orf10 (11716522_x_at) / RFU KIR2DL2 /// KIR2DL4 /// KIR2DL5A /// KIR2DL5B /// KIR2DS1 /// KIR2DS2 /// KIR2DS3 /// KIR2DS4 /// KIR3DL3 /// KIR3DL3 /// KIR3DS1 (11738374_at) / Fold change /veh KIR2DL2 /// KIR2DL4 /// KIR2DL5A /// KIR2DL5B /// KIR2DS1 /// KIR2DS2 /// KIR2DS3 /// KIR2DS4 /// KIR3DL3 /// KIR3DL3 /// KIR3DS1 (11738374_at) / RFU C1QL1 (11718748_at) / Fold change /veh C1QL1 (11718748_at) / RFU TMPRSS4 (11747572_a_at) / Fold change /veh TMPRSS4 (11747572_a_at) / RFU HAMP (11756126_x_at) / Fold change /veh HAMP (11756126_x_at) / RFU RNFT2 (11725882_a_at) / Fold change /veh RNFT2 (11725882_a_at) / RFU NR4A2 (11747474_a_at) / Fold change /veh NR4A2 (11747474_a_at) / RFU ABCC12 (11746883_a_at) / Fold change /veh ABCC12 (11746883_a_at) / RFU TMEM136 (11760407_x_at) / Fold change /veh TMEM136 (11760407_x_at) / RFU CLDN22 /// WWC2 (11732394_at) / Fold change /veh CLDN22 /// WWC2 (11732394_at) / RFU HLA-DPB1 (11760878_x_at) / Fold change /veh HLA-DPB1 (11760878_x_at) / RFU SPINT1 (11716480_a_at) / Fold change /veh SPINT1 (11716480_a_at) / RFU GAP43 (11754022_s_at) / Fold change /veh GAP43 (11754022_s_at) / RFU A4GNT (11735810_at) / Fold change /veh A4GNT (11735810_at) / RFU PRB3 (11715151_x_at) / Fold change /veh PRB3 (11715151_x_at) / RFU TUBB4B (11761932_at) / Fold change /veh TUBB4B (11761932_at) / RFU CAPN14 (11732068_a_at) / Fold change /veh CAPN14 (11732068_a_at) / RFU TMCC2 (11721928_a_at) / Fold change /veh TMCC2 (11721928_a_at) / RFU IRGQ (11745062_a_at) / Fold change /veh IRGQ (11745062_a_at) / RFU FAM174B (11720279_a_at) / Fold change /veh FAM174B (11720279_a_at) / RFU TMPRSS4 (11748680_a_at) / Fold change /veh TMPRSS4 (11748680_a_at) / RFU FAM212B (11763350_a_at) / Fold change /veh FAM212B (11763350_a_at) / RFU PLEKHG5 (11743358_a_at) / Fold change /veh PLEKHG5 (11743358_a_at) / RFU ZSCAN30 (11745921_a_at) / Fold change /veh ZSCAN30 (11745921_a_at) / RFU CMKLR1 (11741424_a_at) / Fold change /veh CMKLR1 (11741424_a_at) / RFU LOC101060620 /// MAPK8IP1 (11723275_at) / Fold change /veh LOC101060620 /// MAPK8IP1 (11723275_at) / RFU SPTSSB (11747773_x_at) / Fold change /veh SPTSSB (11747773_x_at) / RFU PRSS12 (11739890_at) / Fold change /veh PRSS12 (11739890_at) / RFU BIN1 (11741810_x_at) / Fold change /veh BIN1 (11741810_x_at) / RFU WNT11 (11732464_a_at) / Fold change /veh WNT11 (11732464_a_at) / RFU C10orf10 (11716521_a_at) / Fold change /veh C10orf10 (11716521_a_at) / RFU C5orf56 (11738089_at) / Fold change /veh C5orf56 (11738089_at) / RFU CYB561 (11721691_x_at) / Fold change /veh CYB561 (11721691_x_at) / RFU ANKRD19P (11752326_a_at) / Fold change /veh ANKRD19P (11752326_a_at) / RFU OR2T12 /// OR2T33 /// OR2T8 (11738714_s_at) / Fold change /veh OR2T12 /// OR2T33 /// OR2T8 (11738714_s_at) / RFU VCAN (11748164_a_at) / Fold change /veh VCAN (11748164_a_at) / RFU JSRP1 (11732532_at) / Fold change /veh JSRP1 (11732532_at) / RFU KRTAP10-11 (11738290_x_at) / Fold change /veh KRTAP10-11 (11738290_x_at) / RFU MYO3A (11730013_a_at) / Fold change /veh MYO3A (11730013_a_at) / RFU EBF3 (11725865_a_at) / Fold change /veh EBF3 (11725865_a_at) / RFU CAMK2N1 (11719241_x_at) / Fold change /veh CAMK2N1 (11719241_x_at) / RFU C5orf56 (11738088_a_at) / Fold change /veh C5orf56 (11738088_a_at) / RFU OLFML3 (11715873_a_at) / Fold change /veh OLFML3 (11715873_a_at) / RFU LOC100653217 /// NTM (11731650_a_at) / Fold change /veh LOC100653217 /// NTM (11731650_a_at) / RFU MAPK11 (11762145_a_at) / Fold change /veh MAPK11 (11762145_a_at) / RFU FIZ1 (11724087_x_at) / Fold change /veh FIZ1 (11724087_x_at) / RFU OASL (11726364_x_at) / Fold change /veh OASL (11726364_x_at) / RFU SOX15 (11748057_x_at) / Fold change /veh SOX15 (11748057_x_at) / RFU CD79A (11719716_a_at) / Fold change /veh CD79A (11719716_a_at) / RFU HIST1H1D (11736915_at) / Fold change /veh HIST1H1D (11736915_at) / RFU CASKIN2 (11723855_a_at) / Fold change /veh CASKIN2 (11723855_a_at) / RFU LOC730098 (11760151_x_at) / Fold change /veh LOC730098 (11760151_x_at) / RFU OR4N2 (11742367_at) / Fold change /veh OR4N2 (11742367_at) / RFU PRRT2 (11749266_a_at) / Fold change /veh PRRT2 (11749266_a_at) / RFU SNX32 (11753110_a_at) / Fold change /veh SNX32 (11753110_a_at) / RFU CDHR5 (11726645_a_at) / Fold change /veh CDHR5 (11726645_a_at) / RFU RCAN1 (11760418_a_at) / Fold change /veh RCAN1 (11760418_a_at) / RFU FAM167A (11723789_a_at) / Fold change /veh FAM167A (11723789_a_at) / RFU FAM26E (11764081_at) / Fold change /veh FAM26E (11764081_at) / RFU ISYNA1 (11749810_s_at) / Fold change /veh ISYNA1 (11749810_s_at) / RFU ACY1 (11761880_at) / Fold change /veh ACY1 (11761880_at) / RFU 11764098_at / Fold change /veh 11764098_at / RFU SAMD14 (11745864_x_at) / Fold change /veh SAMD14 (11745864_x_at) / RFU NPB (11741838_a_at) / Fold change /veh NPB (11741838_a_at) / RFU TMPRSS6 (11731388_a_at) / Fold change /veh TMPRSS6 (11731388_a_at) / RFU KRTAP10-2 (11738614_at) / Fold change /veh KRTAP10-2 (11738614_at) / RFU ARHGAP8 /// PRR5-ARHGAP8 (11727945_x_at) / Fold change /veh ARHGAP8 /// PRR5-ARHGAP8 (11727945_x_at) / RFU KRTAP5-7 /// NADSYN1 (11734609_at) / Fold change /veh KRTAP5-7 /// NADSYN1 (11734609_at) / RFU RASL12 (11751679_a_at) / Fold change /veh RASL12 (11751679_a_at) / RFU CDKN2B (11736163_a_at) / Fold change /veh CDKN2B (11736163_a_at) / RFU PRF1 (11729649_at) / Fold change /veh PRF1 (11729649_at) / RFU, ZNF638 /// ZNF638-IT1 / Fold change vs veh, ZNF638 /// ZNF638-IT1 / RFU, PANK3 / Fold change vs veh, PANK3 / RFU, SH3YL1 / Fold change vs veh, SH3YL1 / RFU, ZEB2 / Fold change vs veh, ZEB2 / RFU, NRIP1 / Fold change vs veh, NRIP1 / RFU, PTTG1IP / Fold change vs veh, PTTG1IP / RFU, CAPN2 / Fold change vs veh, CAPN2 / RFU, MED14 / Fold change vs veh, MED14 / RFU, SNORA58 / Fold change vs veh, SNORA58 / RFU, C1orf63 / Fold change vs veh, C1orf63 / RFU, LRRFIP1 / Fold change vs veh, LRRFIP1 / RFU, NDUFAF7 / Fold change vs veh, NDUFAF7 / RFU, SLC12A2 / Fold change vs veh, SLC12A2 / RFU, IBTK / Fold change vs veh, IBTK / RFU, ESF1 / Fold change vs veh, ESF1 / Fold change vs veh, TMEM50B / RFU, TAOK1 / Fold change vs veh, TAOK1 / RFU, ACBD3 / Fold change vs veh, ACBD3 / RFU, TMA16 / Fold change vs veh, TMA16 / RFU, RWDD3 / Fold change vs veh, RWDD3 / RFU, BCAT1 / Fold change vs veh, BCAT1 / RFU, EDEM3 / Fold change vs veh, EDEM3 / RFU, TMEM33 / Fold change vs veh, TMEM33 / RFU, WDR75 / Fold change vs veh, WDR75 / RFU, AHCTF1 / Fold change vs veh, AHCTF1 / RFU, TFRC / Fold change vs veh, TFRC / RFU, ZDHHC17 / Fold change vs veh, ZDHHC17 / RFU, NOM1 / Fold change vs veh, NOM1 / RFU, ARL8B / Fold change vs veh, ARL8B / RFU, ZBTB11 / Fold change vs veh, ZBTB11 / RFU, TAMM41 / Fold change vs veh, TAMM41 / RFU, KIAA1704 /// LOC100996395 / Fold change vs veh, KIAA1704 /// LOC100996395 / RFU, ING1 / Fold change vs veh, ING1 / RFU, TRMT61B / Fold change vs veh, TRMT61B / RFU, FUBP3 / Fold change vs veh, FUBP3 / RFU, TP53 / Fold change vs veh, TP53 / RFU, TNKS2 / Fold change vs veh, TNKS2 / RFU, ZFP14 / Fold change vs veh, ZFP14 / RFU, ACTR2 / Fold change vs veh, ACTR2 / RFU, PPP3R1 / Fold change vs veh, PPP3R1 / RFU, PIK3R1 / Fold change vs veh, PIK3R1 / RFU, HNRNPA1 / Fold change vs veh, HNRNPA1 / RFU, RNF170 / Fold change vs veh, RNF170 / RFU, ZNF28 / Fold change vs veh, ZNF28 / RFU, RNGTT / Fold change vs veh, RNGTT / RFU, OGT / Fold change vs veh, OGT / RFU, BRD1 / Fold change vs veh, BRD1 / RFU, MARS / Fold change vs veh, MARS / RFU, ZNF655 / Fold change vs veh, ZNF655 / RFU, FAHD1 / Fold change vs veh, FAHD1 / RFU, BDP1 / Fold change vs veh, BDP1 / RFU, LRRCC1 / Fold change vs veh, LRRCC1 / RFU, ARID1A / Fold change vs veh, ARID1A / RFU, ZNF146 / Fold change vs veh, ZNF146 / RFU, ZNF330 / Fold change vs veh, ZNF330 / RFU, GPN3 / Fold change vs veh, GPN3 / RFU, C9orf123 / Fold change vs veh, C9orf123 / RFU, N4BP2L2 / Fold change vs veh, N4BP2L2 / RFU, ARFIP1 / Fold change vs veh, ARFIP1 / RFU, FAM179B / Fold change vs veh, FAM179B / RFU, BCL10 / Fold change vs veh, BCL10 / RFU, UHRF1BP1L / Fold change vs veh, UHRF1BP1L / RFU, BET1 / Fold change vs veh, BET1 / RFU, CNOT2 / Fold change vs veh, CNOT2 / RFU, ZNF268 / Fold change vs veh, ZNF268 / Fold change vs veh, ZNF507 / RFU, DGCR2 / Fold change vs veh, DGCR2 / RFU, WDSUB1 / Fold change vs veh, WDSUB1 / Fold change vs veh, HSP90B1 /// MIR3652 / RFU, ADSS / Fold change vs veh, ADSS / RFU, GK / Fold change vs veh, GK / RFU, ZNF148 / Fold change vs veh, ZNF148 / RFU, TAF9 / Fold change vs veh, TAF9 / RFU, SLC1A5 / Fold change vs veh, SLC1A5 / RFU, SLMO2 / Fold change vs veh, SLMO2 / RFU, ABCC4 / Fold change vs veh, ABCC4 / RFU, LOC101060439 /// RAP1B / Fold change vs veh, LOC101060439 /// RAP1B / RFU, RFX7 / Fold change vs veh, RFX7 / RFU, GTPBP10 / Fold change vs veh, GTPBP10 / RFU, CNEP1R1 / Fold change vs veh, CNEP1R1 / RFU, BIVM-ERCC5 /// ERCC5 / Fold change vs veh, BIVM-ERCC5 /// ERCC5 / RFU, ILF3 / Fold change vs veh, ILF3 / RFU 11762660_at / Fold change /veh 11762660_at / RFU VCAN (11757783_s_at) / Fold change /veh VCAN (11757783_s_at) / RFU DDX43 (11728927_at) / Fold change /veh DDX43 (11728927_at) / RFU KRT8 (11758188_x_at) / Fold change /veh KRT8 (11758188_x_at) / RFU NKD1 (11759106_at) / Fold change /veh NKD1 (11759106_at) / RFU SRD5A1 (11742802_a_at) / Fold change /veh SRD5A1 (11742802_a_at) / RFU TPSAB1 /// TPSB2 (11721975_s_at) / Fold change /veh TPSAB1 /// TPSB2 (11721975_s_at) / RFU GSTM3 (11746129_a_at) / Fold change /veh GSTM3 (11746129_a_at) / RFU IL23R (11737362_x_at) / Fold change /veh IL23R (11737362_x_at) / RFU TMEM51 (11727254_a_at) / Fold change /veh TMEM51 (11727254_a_at) / RFU PIWIL2 (11732686_x_at) / Fold change /veh PIWIL2 (11732686_x_at) / RFU ORM1 (11744905_x_at) / Fold change /veh ORM1 (11744905_x_at) / RFU CCDC152 (11743942_at) / Fold change /veh CCDC152 (11743942_at) / RFU ECM1 (11717891_a_at) / Fold change /veh ECM1 (11717891_a_at) / RFU IL23R (11748794_a_at) / Fold change /veh IL23R (11748794_a_at) / RFU TNFAIP8L3 (11732012_x_at) / Fold change /veh TNFAIP8L3 (11732012_x_at) / RFU MBOAT4 (11741988_at) / Fold change /veh MBOAT4 (11741988_at) / RFU 11764193_at / Fold change /veh 11764193_at / RFU TMEM53 (11763286_at) / Fold change /veh TMEM53 (11763286_at) / RFU MAGEB2 (11727129_at) / Fold change /veh MAGEB2 (11727129_at) / RFU TMEM200A (11744735_a_at) / Fold change /veh TMEM200A (11744735_a_at) / RFU CCDC152 (11751479_a_at) / Fold change /veh CCDC152 (11751479_a_at) / RFU FAM211A (11726209_a_at) / Fold change /veh FAM211A (11726209_a_at) / RFU RGS16 (11746705_a_at) / Fold change /veh RGS16 (11746705_a_at) / RFU VCAN (11755009_s_at) / Fold change /veh VCAN (11755009_s_at) / RFU RHOB (11743442_s_at) / Fold change /veh RHOB (11743442_s_at) / RFU RGS16 (11720943_a_at) / Fold change /veh RGS16 (11720943_a_at) / RFU RGS16 (11720944_at) / Fold change /veh RGS16 (11720944_at) / RFU, VPS4B / Fold change vs veh, VPS4B / RFU, CREB1 / Fold change vs veh, CREB1 / RFU, DNAJC13 / Fold change vs veh, DNAJC13 / RFU, GNAQ / Fold change vs veh, GNAQ / RFU, CDK5R1 / Fold change vs veh, CDK5R1 / RFU, ZRANB3 / Fold change vs veh, ZRANB3 / RFU, CUL4A / Fold change vs veh, CUL4A / RFU, CCNY / Fold change vs veh, CCNY / RFU, UFL1 / Fold change vs veh, UFL1 / RFU, COG3 / Fold change vs veh, COG3 / RFU, DIAPH2 / Fold change vs veh, DIAPH2 / RFU, SKA2 / Fold change vs veh, SKA2 / RFU, AFF3 / Fold change vs veh, AFF3 / RFU, LMF1 / Fold change vs veh, LMF1 / RFU, IPO11 / Fold change vs veh, IPO11 / RFU, DFFB / Fold change vs veh, DFFB / RFU, FOXP1 / Fold change vs veh, FOXP1 / RFU, CARD8 / Fold change vs veh, CARD8 / RFU, STRN3 / Fold change vs veh, STRN3 / RFU, ADK / Fold change vs veh, ADK / RFU, RASSF2 / Fold change vs veh, RASSF2 / RFU, WIPF1 / Fold change vs veh, WIPF1 / RFU, LARP1B / Fold change vs veh, LARP1B / RFU, RASA1 / Fold change vs veh, RASA1 / RFU, RB1 / Fold change vs veh, RB1 / RFU, PPFIA1 / Fold change vs veh, PPFIA1 / RFU, MAT2A / Fold change vs veh, MAT2A / RFU, CCT5 / Fold change vs veh, CCT5 / RFU, WDR92 / Fold change vs veh, WDR92 / RFU, CUX1 / Fold change vs veh, CUX1 / RFU, TTC7A / Fold change vs veh, TTC7A / RFU, TMEM135 / Fold change vs veh, TMEM135 / RFU, DEPTOR / Fold change vs veh, DEPTOR / RFU, CPM / Fold change vs veh, CPM / RFU, DNAJB6 / Fold change vs veh, DNAJB6 / RFU, CACNA2D3 / Fold change vs veh, CACNA2D3 / RFU, DTX4 / Fold change vs veh, DTX4 / RFU, TFCP2 / Fold change vs veh, TFCP2 / RFU, GMCL1 /// GMCL1P1 / Fold change vs veh, GMCL1 /// GMCL1P1 / RFU, AEBP2 / Fold change vs veh, AEBP2 / RFU, SNHG1 /// SNORD22 /// SNORD25 /// SNORD26 /// SNORD27 /// SNORD28 /// SNORD29 /// SNORD31 / Fold change vs veh, SNHG1 /// SNORD22 /// SNORD25 /// SNORD26 /// SNORD27 /// SNORD28 /// SNORD29 /// SNORD31 / Fold change (Aza/veh), C12orf56 (ProbeSet 11735607_a_at) / Fold change (ACY-1035/veh), C12orf56 (ProbeSet 11735607_a_at) / Fold change (Aza/veh), FGFR1OP (ProbeSet 11751329_s_at) / Fold change (ACY-1035/veh), FGFR1OP (ProbeSet 11751329_s_at) / Fold change (Aza/veh), VPS36 (ProbeSet 11739960_a_at) / Fold change (ACY-1035/veh), VPS36 (ProbeSet 11739960_a_at) / RFU SYPL1 (11715823_x_at) / Fold change /veh SYPL1 (11715823_x_at) / RFU IGFBP7 (11715501_s_at) / Fold change /veh IGFBP7 (11715501_s_at) / RFU REEP3 (11722064_at) / Fold change /veh REEP3 (11722064_at) / RFU IGLL1 (11728026_x_at) / Fold change /veh IGLL1 (11728026_x_at): dose or concentration left out as unconfirmed
Settings: ProbeSet 11723475_a_at; LIST B

Nc1ncn([C@@H]2O[C@H](CO)[C@@H](O)[C@H]2O)c(=O)n1 [azacitidine]
Fold change vs veh, TRMT61B: 0.91
